# Species on record: Rattus norvegicus
# Assay: DrugMatrix - Regimen: Daily Repeat
# Format: toxicity, organism-based, Sprague-Dawley
# Parameters: regimen Daily Repeat, gender Male, age 6-8 weeks
# Conditions: in vivo, iv, 20 mg/kg, dose level Low, vehicle 100 % SALINE; for ABSOLUTE BASOPHIL / ABSOLUTE EOSINOPHIL / ABSOLUTE LYMPHOCYTE / ABSOLUTE MONOCYTE / ABSOLUTE SEGMENTED NEUTROPHIL / BASOPHIL / EOSINOPHIL / ERYTHROCYTE COUNT / HEMATOCRIT / HEMOGLOBIN / LEUKOCYTE COUNT / LYMPHOCYTE / MEAN CORPUSCULAR HEMOGLOBIN / MONOCYTE / NEUTROPHIL / NUCLEATED RED BLOOD CELLS / PLATELET COUNT: tissue Blood; for ALANINE AMINOTRANSFERASE / ALBUMIN / ALKALINE PHOSPHATASE / ASPARTATE AMINOTRANSFERASE / BLOOD UREA NITROGEN / CARBON DIOXIDE / CHLORIDE / CHOLESTEROL / CREATINE PHOSPHOKINASE / CREATININE / GLUCOSE / LACTATE DEHYDROGENASE / LIPASE / PHOSPHORUS / POTASSIUM / SODIUM / TOTAL BILIRUBIN / TOTAL PROTEIN / URIC ACID: tissue Plasma
structure (smiles),measurement,setting,value
CCC[C@@H]1C[C@@H](C(=O)N[C@@H]([C@H]2O[C@H](SC)[C@H](O)[C@@H](O)[C@H]2O)[C@H](C)Cl)N(C)C1 [CLINDAMYCIN],ABSOLUTE BASOPHIL,"72 h, time 3 day",0 CELLS/uL
same,ABSOLUTE EOSINOPHIL,"72 h, time 3 day",40 CELLS/uL
same,ABSOLUTE LYMPHOCYTE,"72 h, time 3 day",9607.67 CELLS/uL
same,ABSOLUTE MONOCYTE,"72 h, time 3 day",40 CELLS/uL
same,ABSOLUTE SEGMENTED NEUTROPHIL,"72 h, time 3 day",712.33 CELLS/uL
same,BASOPHIL,"72 h, time 3 day",0%
same,EOSINOPHIL,"72 h, time 3 day",0.33%
same,ERYTHROCYTE COUNT,"72 h, time 3 day",5.49 x10E6/uL
same,HEMATOCRIT,"72 h, time 3 day",34.93%
same,HEMOGLOBIN,"72 h, time 3 day",13.7 G/DL
same,LEUKOCYTE COUNT,"72 h, time 3 day",10.4 x10E3/uL
same,LYMPHOCYTE,"72 h, time 3 day",92.67%
same,MEAN CORPUSCULAR HEMOGLOBIN,"72 h, time 3 day",24.97 pg
same,MONOCYTE,"72 h, time 3 day",0.33%
same,NEUTROPHIL,"72 h, time 3 day",6.67%
same,NUCLEATED RED BLOOD CELLS,"72 h, time 3 day",0 /100WBC
same,PLATELET COUNT,"72 h, time 3 day",1194.33 x10E3/uL
same,ALANINE AMINOTRANSFERASE,"72 h, time 3 day",42 u/L
same,ALBUMIN,"72 h, time 3 day",4.4 G/DL
same,ALKALINE PHOSPHATASE,"72 h, time 3 day",375.67 u/L
same,ASPARTATE AMINOTRANSFERASE,"72 h, time 3 day",82.67 u/L
same,BLOOD UREA NITROGEN,"72 h, time 3 day",19 mg/dL
same,CARBON DIOXIDE,"72 h, time 3 day",35.33 mmol/L
same,CHLORIDE,"72 h, time 3 day",97 MEQ/L
same,CHOLESTEROL,"72 h, time 3 day",81.33 mg/dL
same,CREATINE PHOSPHOKINASE,"72 h, time 3 day",250 u/L
same,CREATININE,"72 h, time 3 day",0.19 mg/dL
same,GLUCOSE,"72 h, time 3 day",124.33 mg/dL
same,LACTATE DEHYDROGENASE,"72 h, time 3 day",260.67 u/L
same,LIPASE,"72 h, time 3 day",11 u/L
same,PHOSPHORUS,"72 h, time 3 day",9.63 mg/dL
same,POTASSIUM,"72 h, time 3 day",6.58 MEQ/L
same,SODIUM,"72 h, time 3 day",143.4 MEQ/L
same,TOTAL BILIRUBIN,"72 h, time 3 day",0.17 mg/dL
same,TOTAL PROTEIN,"72 h, time 3 day",6.4 G/DL
same,URIC ACID,"72 h, time 3 day",0.87 mg/dL
same,ABSOLUTE BASOPHIL,"120 h, time 5 day",0 CELLS/uL
same,ABSOLUTE EOSINOPHIL,"120 h, time 5 day",97.33 CELLS/uL
same,ABSOLUTE LYMPHOCYTE,"120 h, time 5 day",13386.67 CELLS/uL
same,ABSOLUTE MONOCYTE,"120 h, time 5 day",100.67 CELLS/uL
same,ABSOLUTE SEGMENTED NEUTROPHIL,"120 h, time 5 day",1348.67 CELLS/uL
same,BASOPHIL,"120 h, time 5 day",0%
same,EOSINOPHIL,"120 h, time 5 day",0.67%
same,ERYTHROCYTE COUNT,"120 h, time 5 day",5.84 x10E6/uL
same,HEMATOCRIT,"120 h, time 5 day",35.8%
same,HEMOGLOBIN,"120 h, time 5 day",14.27 G/DL
same,LEUKOCYTE COUNT,"120 h, time 5 day",14.93 x10E3/uL
same,LYMPHOCYTE,"120 h, time 5 day",89.67%
same,MEAN CORPUSCULAR HEMOGLOBIN,"120 h, time 5 day",24.47 pg
same,MONOCYTE,"120 h, time 5 day",0.67%
same,NEUTROPHIL,"120 h, time 5 day",9%
same,NUCLEATED RED BLOOD CELLS,"120 h, time 5 day",0 /100WBC
same,PLATELET COUNT,"120 h, time 5 day",1266.67 x10E3/uL
same,ALANINE AMINOTRANSFERASE,"120 h, time 5 day",57.67 u/L
same,ALBUMIN,"120 h, time 5 day",4.33 G/DL
same,ALKALINE PHOSPHATASE,"120 h, time 5 day",400.67 u/L
same,ASPARTATE AMINOTRANSFERASE,"120 h, time 5 day",85 u/L
same,BLOOD UREA NITROGEN,"120 h, time 5 day",18.67 mg/dL
same,CARBON DIOXIDE,"120 h, time 5 day",35.33 mmol/L
same,CHLORIDE,"120 h, time 5 day",100.33 MEQ/L
same,CHOLESTEROL,"120 h, time 5 day",70.67 mg/dL
same,CREATINE PHOSPHOKINASE,"120 h, time 5 day",217 u/L
same,CREATININE,"120 h, time 5 day",0.19 mg/dL
same,GLUCOSE,"120 h, time 5 day",148.33 mg/dL
same,LACTATE DEHYDROGENASE,"120 h, time 5 day",152.67 u/L
same,LIPASE,"120 h, time 5 day",8.33 u/L
same,PHOSPHORUS,"120 h, time 5 day",12.6 mg/dL
same,POTASSIUM,"120 h, time 5 day",7.37 MEQ/L
same,SODIUM,"120 h, time 5 day",144.4 MEQ/L
same,TOTAL BILIRUBIN,"120 h, time 5 day",0.2 mg/dL
same,TOTAL PROTEIN,"120 h, time 5 day",6.43 G/DL
same,URIC ACID,"120 h, time 5 day",1.67 mg/dL

# From ChEMBL document CHEMBL3885881, “DrugMatrix”
